pIC50, pKi: −log10 of the molar value. Like-named read-outs stand apart in the source and are kept apart here.
Tests used:
[1] = system: C. reinhardtii (CC-503); test: C. reinhardtii growth inhibition by HPPD inhibiting herbicides; assay type: cell-based, Chlamydomonas reinhardtii
From the text: (§1) Bleaching herbicides with a mode of action in plastoquinone or tocopherol biosynthesis can inhibit algae growth (Tables 14 and 15). These effects can be partly reversed by intermediates of homogentisic acid biosynthesis (Table 14). To generate mutations conferring “coumarone-derivative herbicide” resistance in HPPD or HST genes, chemical or UV mutagenesis can be used. Especially unicellular organisms like Chlamydomonas reinhardtii or Scenedesmus obliquus are useful for identifying dominant mutations in herbicide resistance.
(§2) Algae cells of Chlamydomonas reinhardtii strains CC-503 and CC-1691 (Duke University, Durham, USA) are propagated in TAP medium (Gorman and Levine (1965) PNAS 54: 1665-1669) by constant shaking at 100 rpm, 22° C. and 30 μmol Phot*m^−2*[…] light illumination. Scenedesmus obliquus (University of Gottingen, Germany) are propagated in algae medium as described (Boger and Sandmann, (1993) In: Target assays for modern herbicides and related phytotoxic compounds, Lewis Publishers) under same culturing conditions as mentioned for Chlamydomonas. Compound screening is performed at 450 μmol Phot*m^−2*[…] illumination.

[2] = system: Scenedesmus obliquus; test: S. obliquus growth inhibition; assay type: cell-based
From the text: as §1, §2

[3] = system: Chlamydomonas strain CMr15; test: Growth inhibition of Chlamydomonas strains (tolerance); assay type: cell-based, Chlamydomonas reinhardtii
Description: as §2
(§3) Sensitive strains of Chlamydomonas reinhardtii or Scenedesmus obliquus (Tables 14, 15) are mutated with 0.14 […] (EMS) for 1 h as described by Loppes (1969, Mol Gen Genet. 104: 172-177) Tolerant strains are identified by screening of mutagenized cells on solid nutrient solution plates containing “coumarone-derivative herbicides” or other HPPD inhibiting herbicides at wildype-lethal concentrations. Examples of the data obtained are depicted in Table 16 and FIG. 2.

[4] = system: Chlamydomonas strain CMr13; test: as above; assay type: cell-based, Chlamydomonas reinhardtii; details: read-out: IC50 of growth inhibition
Description: as §2, §3

[5] = system: Chlamydomonas strain CMr10; test: as above; assay type: cell-based, Chlamydomonas reinhardtii; details: read-out: IC50 of growth inhibition
Description: as §2, §3

[6] = system: Chlamydomonas strain CMr04; test: as above; assay type: cell-based, Chlamydomonas reinhardtii
Description: as §2, §3

[7] = system: Chlamydomonas strain CC1961 wild-type; test: as above; assay type: cell-based, Chlamydomonas reinhardtii; details: read-out: IC50 of growth inhibition
Description: as §2, §3

[8] = system: Chlamydomonas strain CMr06; test: as above; assay type: cell-based, Chlamydomonas reinhardtii
Description: as §2, §3

[9] = system: Chlamydomonas strain CMr05; test: as above; assay type: cell-based, Chlamydomonas reinhardtii
Description: as §2, §3

[10] = target: T1, Arabidopsis HPPD variant Q293H (Arabidopsis thaliana, UniProt P93836, Q293H); test: HPPD activity assay, mutant enzyme; assay type: biochemical
T1 construct: His6 (N); made in house; host or cells: E. coli BL21 (DE3)
T1 sequence (P93836 whole entry Q293H): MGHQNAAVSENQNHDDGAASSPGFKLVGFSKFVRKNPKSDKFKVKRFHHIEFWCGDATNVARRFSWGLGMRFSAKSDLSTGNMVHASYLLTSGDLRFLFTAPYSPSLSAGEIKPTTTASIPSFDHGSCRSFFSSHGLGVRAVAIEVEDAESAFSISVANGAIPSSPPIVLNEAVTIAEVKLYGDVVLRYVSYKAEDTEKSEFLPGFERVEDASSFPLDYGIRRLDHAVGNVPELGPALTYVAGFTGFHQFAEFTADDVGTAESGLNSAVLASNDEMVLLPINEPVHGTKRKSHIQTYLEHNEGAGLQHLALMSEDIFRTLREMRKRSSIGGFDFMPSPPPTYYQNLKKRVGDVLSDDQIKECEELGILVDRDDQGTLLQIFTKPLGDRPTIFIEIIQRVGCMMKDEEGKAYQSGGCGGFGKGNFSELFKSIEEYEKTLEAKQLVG
Description: (§4) HPPD produces homogentisic acid and CO2 from 4-hydroxyphenylpyruvate (4-HPP) and O2. The activity assay for HPPD is based on the analysis of homogentisic acid by reversed phase HPLC.
(§5) The assay mixture can contain 150 mM potassium phosphate buffer pH 7.0, 50 mM L-ascorbic acid, 1 μM FeSO4 and 7 μg of purified enzyme in a total volume of 1 ml.
(§6) Inhibitors are dissolved in DMSO (dimethylsulfoxide) to a concentration of 20 mM or 0.5 mM, respectively. From this stock solution serial five-fold dilutions are prepared in DMSO, which are used in the assay. The respective inhibitor solution accounts for 1% of the assay volume. Thus, final inhibitor concentrations range from 200 μM to 2.5 nM or from 5 μM to 63 pM, respectively.
(§7) After a preincubation of 30 min the reaction is started by adding 4-HPP to a final concentration of 0.1 mM. The reaction is allowed to proceed for 120 min at room temperature. The reaction is stopped by addition of 100 μl of 4.5 M phosphoric acid.
(§8) The sample is extracted on an Oasis® HLB cartridge 3 cc/60 mg (Waters) that was preequilibrated with 63 mM phosphoric acid. L-ascorbic acid is washed out with 3 ml of 63 mM phosphoric acid. Homogentisate is eluted with 1 ml of a 1:1 mixture of 63 mM phosphoric acid and methanol (w/w).
(§9) 10 μl of the eluate is analyzed by reversed phase HPLC on a Symmetry® C18 column (particle size 3.5 μm, dimensions 4.6×100 mm; Waters) using 5 mM H3PO4/15% ethanol (w/w) as an eluent.
(§10) Homogentisic acid is detected electrochemically and quantified by measuring peak areas (Empower software; Waters).
(§11) Activities are normalized by setting the uninhibited enzyme activity to 100%. IC50 values are calculated using non-linear regression.
(§12) The assay mixture can contain 150 mM potassium phosphate buffer pH 7.0, 50 mM L-ascorbic acid, 100 μM Catalase (Sigma-Aldrich), 1 μM FeSO4 and 0.2 units of purified HPPD enzyme in a total volume of 505 μl. 1 unit is defined as the amount of enzyme that is required to produce 1 nmol of HGA per minute at 20° C.
(§13) After a preincubation of 30 min the reaction is started by adding 4-HPP to a final concentration of 0.05 mM. The reaction is allowed to proceed for 45 min at room temperature. The reaction is stopped by the addition of 50 μl of 4.5 M phosphoric acid. The sample is filtered using a […] pore size PVDF filtration device.
(§14) 5 μl of the cleared sample is analyzed on an Atlantis T3 column (particle size 3 μm, dimensions 3×50 mm; Waters) by isocratic elution using 90% 10 mM NaH2PO4 pH 2.2, 10% methanol (v/v).
(§15) HGA is detected electrochemically at 750 mV (mode: DC; polarity: positive) and quantified by integrating peak areas (Empower software; Waters).
(§16) Inhibitors are dissolved in DMSO (dimethylsulfoxide) to a concentration of 0.5 mM. From this stock solution serial five-fold dilutions are prepared in DMSO, which are used in the assay. The respective inhibitor solution accounts for 1% of the assay volume. Thus, final inhibitor concentrations range from 5 μM to 320 pM, respectively. Activities are normalized by setting the uninhibited enzyme activity to 100%. IC50 values are calculated using non-linear regression.
(§17) Purified, mutant HPPD enzymes are obtained by the methods described above. Dose response and kinetic measurements are carried out using the described HPPD activity assay. Apparent michaelis constants (Km) and maximal reaction velocities (Vmax) are calculated by non-linear regression with the software GraphPad Prism 5 (GraphPad Software, La Jolla, USA) using a substrate inhibition model. Apparent kcat values are calculated from Vmax assuming 100% purity of the enzyme preparation. Weighted means (by standard error) of Km and IC50 values are calculated from at least three independent experiments. The Cheng-Prusoff equation for competitive inhibition (Cheng, Y. C.; Prusoff, W. H. Biochem Pharmacol 1973, 22, 3099-3108) is used to calculate dissociation constants (Ki). Examples of the data obtained are depicted in Table 13.

[11] = target: T2, Arabidopsis HPPD variant Q293N (Arabidopsis thaliana, UniProt P93836, Q293N); test: HPPD activity assay, mutant enzyme; assay type: biochemical
T2 construct: His6 (N); made in house; host or cells: E. coli BL21 (DE3)
T2 sequence (P93836 whole entry Q293N): as the sequence (P93836 whole entry Q293H) above, with H293N counted along it
Description: as §4, §5, §6, §7, §8, §9, §10, §11, §12, §13, §14, §15, §16, §17

[12] = target: Chlamydomonas HPPD1 (Chlamydomonas reinhardtii, UniProt A0A2K3DET7); test: HPPD activity assay, wildtype enzyme; assay type: biochemical; details: calculated from IC50 with Cheng-Prusoff equation, read-out: dissociation constant Ki
Chain of Chlamydomonas HPPD1 (A0A2K3DET7 entry or part of it): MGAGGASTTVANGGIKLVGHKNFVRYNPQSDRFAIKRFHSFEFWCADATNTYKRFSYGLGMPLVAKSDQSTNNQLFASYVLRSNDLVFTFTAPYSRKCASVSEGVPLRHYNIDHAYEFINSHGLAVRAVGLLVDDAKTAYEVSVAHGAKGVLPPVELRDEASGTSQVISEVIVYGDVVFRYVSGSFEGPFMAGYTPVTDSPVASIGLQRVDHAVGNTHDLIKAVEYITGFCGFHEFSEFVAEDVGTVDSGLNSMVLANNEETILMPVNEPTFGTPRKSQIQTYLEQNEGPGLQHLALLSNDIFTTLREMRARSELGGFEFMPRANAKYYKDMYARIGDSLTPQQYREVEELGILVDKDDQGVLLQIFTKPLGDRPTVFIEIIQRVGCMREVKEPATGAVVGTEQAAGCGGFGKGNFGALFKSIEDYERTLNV
Description: as §4, §5
Inhibitors are dissolved in DMSO (dimethylsulfoxide) to a concentration of 20 mM or 0.5 mM, respectively. From this stock solution serial five-fold dilutions are prepared in DMSO, which are used in the assay. The respective inhibitor solution accounts for 1% of the assay volume.
as §7, §11
The assay mixture can contain 150 mM potassium phosphate buffer pH 7.0, 50 mM L-ascorbic acid, 100 μM Catalase (Sigma-Aldrich), 1 μM FeSO4 and 0.2 units of purified HPPD enzyme in a total volume of 505 μl. […]
as §15
Inhibitors are dissolved in DMSO (dimethylsulfoxide) to a concentration of 0.5 mM. […] IC50 values are calculated using non-linear regression.
Using methods which are described in the above examples or well known in the art, purified, recombinant wildtype HPPD enzymes are characterized with respect to their kinetic properties and sensitivity towards HPPD inhibiting herbicides. Apparent michaelis constants (Km) and maximal reaction velocities (Vmax) are calculated by non-linear regression with the software GraphPad Prism 5 (GraphPad Software, La Jolla, USA) using a substrate inhibition model. […] Weighted means (by standard error) of Km and IC50 values are calculated from at least three independent experiments.

[13] = target: T3, Arabidopsis HPPD (Arabidopsis thaliana, UniProt P93836); test: HPPD activity assay (homogentisic acid by HPLC), wildtype enzyme; assay type: biochemical; details: Table 11, calculated from IC50 with Cheng-Prusoff equation, read-out: dissociation constant Ki
T3 construct: His6 (N); made in house; host or cells: E. coli BL21 (DE3)
T3 sequence (P93836 1-445): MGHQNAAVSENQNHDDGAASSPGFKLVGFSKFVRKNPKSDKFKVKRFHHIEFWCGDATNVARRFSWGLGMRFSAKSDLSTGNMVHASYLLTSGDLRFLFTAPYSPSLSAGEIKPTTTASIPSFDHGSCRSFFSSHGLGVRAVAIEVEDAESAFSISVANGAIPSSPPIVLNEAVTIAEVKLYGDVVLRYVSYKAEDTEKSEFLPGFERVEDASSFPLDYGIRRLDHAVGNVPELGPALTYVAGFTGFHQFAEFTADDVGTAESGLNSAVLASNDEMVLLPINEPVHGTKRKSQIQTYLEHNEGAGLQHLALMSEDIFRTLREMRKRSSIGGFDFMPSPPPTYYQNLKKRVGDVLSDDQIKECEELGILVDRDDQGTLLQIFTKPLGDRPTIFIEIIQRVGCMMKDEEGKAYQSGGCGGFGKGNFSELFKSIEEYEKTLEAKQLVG
Description: as §4, §5, §6, §7
The sample is extracted on an Oasis® HLB cartridge 3 cc/60 mg (Waters) that was preequilibrated with 63 mM phosphoric acid. L-ascorbic acid is washed out with 3 ml of 63 mM phosphoric acid. […]
as §9, §10
Activities are normalized by setting the uninhibited enzyme activity to 100%. IC50 values are calculated using non-linear regression. […]
as §14, §15
Inhibitors are dissolved in DMSO (dimethylsulfoxide) to a concentration of 0.5 mM. […] IC50 values are calculated using non-linear regression. […]

[14] = read-out: IC50 of growth inhibition

C#Cc1ccc(-c2c(O)c3ncccc3oc2=O)c(C(F)(F)F)c1 [drawing 20]
Growth inihibition [%] C. reinhardtii (CC-503) ([1]; c 1 * 10^−4 M): 61%
Growth inihibition [%] C. reinhardtii (CC-503) + Homogentisic acid ([1]; c 1 * 10^−4 M): 43%
Growth inihibition [%] C. reinhardtii (CC-503) ([1]; c 5 * 10^−4 M): 90%
Growth inihibition [%] C. reinhardtii (CC-503) + Homogentisic acid ([1]; c 5 * 10^−4 M): 67%

C#Cc1ccc(-c2c(O)c3ncccc3oc2=O)c(C(F)(F)F)c1 [drawing 21, 3-[4-ethynyl-2-(trifluoromethyl)phenyl]-4-hydroxy-pyrano[3,2-b]pyridin-2-one]
Growth inihibition [%] Scenedesmus obliquus ([2]; c 1 * 10^−4 M): 100%
Growth inihibition [%] Scenedesmus obliquus ([2]; c 1 * 10^−5 M): 77%

CS(=O)(=O)c1ccc(C(=O)C2C(=O)CCCC2=O)c([N+](=O)[O-])c1 [Mesotrione, reference compound]
pIC50 [3, 14]: 3.27
pIC50 [4]: < 3.22
pIC50 [5]: 3.35
pIC50 [6, 14]: < 3.22
pIC50 [7]: 4.52
pIC50 [8, 14]: < 3.22
pIC50 [9, 14]: < 3.22

Cc1c(-c2c(O)c3ncccc3oc2=O)ccc(S(C)(=O)=O)c1C1=NOC(C)C1 (stereo not drawn) [“coumarone-derivative herbicides” 1, 4-hydroxy-3-[2-methyl-3-(5-methyl-4,5-dihydroisoxazol-3-yl)-4-methylsulfonyl-phenyl]pyrano[3,2-b]pyridin-2-one]
pIC50 ([3]; strain CMr15, read-out: IC50 of growth inhibition): < 3.00
pIC50 [4]: 3.02
pIC50 [5]: < 3.00
pIC50 ([6]; strain CMr04, read-out: IC50 of growth inhibition): < 3.00
pIC50 ([7]; strain CC1961 wild-type): 3.12
pIC50 ([8]; strain CMr06, read-out: IC50 of growth inhibition): < 3.00
pIC50 ([9]; strain CMr05, read-out: IC50 of growth inhibition): < 3.00

O=S1(=O)C(c2ccc(Cl)cc2Cl)=C(O)c2ncccc2N1CC(F)F [Inhibitor 2, 3-(2,4-dichlorophenyl)-1-(2,2-difluoroethyl)-2,2-dioxo-pyrido[3,2-c]thiazin-4-ol]
pKi [10]: 7.72
pKi [11]: 7.36
pKi [12]: 6.86
pKi [13]: 7.89

Reference: patent US20130053243A1, “PLANTS HAVING INCREASED TOLERANCE TO HERBICIDES” (BASF SE, priority 2010, published 2013)
